Source: patent publication US20250381168A1, “VLA4 INHIBITORS AND USES THEREOF” (Washington University, priority 2022, published 2025)
“Also recorded” adds a separate entry of the source. Where two headings read alike, the source gives them in different places.

Columns and labels:
VLA-4 (a4b1) = VLA-4 (a4b1) (Homo sapiens (Human), UniProt P05556+P13612); assay: sVCAM flow cytometry cell-based assay (inhibition of soluble VCAM-1 binding to G2 ALL cells);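 also: compounds at 0.1 to 1000 nM preincubated 30 min with G2 ALL cells, then VCAM/Fc added for 30 min, bound VCAM-1 detected by PE secondary antibody, percent binding cells by flow cytometry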
Sequence of VLA-4 (a4b1) (P13612 34-1032): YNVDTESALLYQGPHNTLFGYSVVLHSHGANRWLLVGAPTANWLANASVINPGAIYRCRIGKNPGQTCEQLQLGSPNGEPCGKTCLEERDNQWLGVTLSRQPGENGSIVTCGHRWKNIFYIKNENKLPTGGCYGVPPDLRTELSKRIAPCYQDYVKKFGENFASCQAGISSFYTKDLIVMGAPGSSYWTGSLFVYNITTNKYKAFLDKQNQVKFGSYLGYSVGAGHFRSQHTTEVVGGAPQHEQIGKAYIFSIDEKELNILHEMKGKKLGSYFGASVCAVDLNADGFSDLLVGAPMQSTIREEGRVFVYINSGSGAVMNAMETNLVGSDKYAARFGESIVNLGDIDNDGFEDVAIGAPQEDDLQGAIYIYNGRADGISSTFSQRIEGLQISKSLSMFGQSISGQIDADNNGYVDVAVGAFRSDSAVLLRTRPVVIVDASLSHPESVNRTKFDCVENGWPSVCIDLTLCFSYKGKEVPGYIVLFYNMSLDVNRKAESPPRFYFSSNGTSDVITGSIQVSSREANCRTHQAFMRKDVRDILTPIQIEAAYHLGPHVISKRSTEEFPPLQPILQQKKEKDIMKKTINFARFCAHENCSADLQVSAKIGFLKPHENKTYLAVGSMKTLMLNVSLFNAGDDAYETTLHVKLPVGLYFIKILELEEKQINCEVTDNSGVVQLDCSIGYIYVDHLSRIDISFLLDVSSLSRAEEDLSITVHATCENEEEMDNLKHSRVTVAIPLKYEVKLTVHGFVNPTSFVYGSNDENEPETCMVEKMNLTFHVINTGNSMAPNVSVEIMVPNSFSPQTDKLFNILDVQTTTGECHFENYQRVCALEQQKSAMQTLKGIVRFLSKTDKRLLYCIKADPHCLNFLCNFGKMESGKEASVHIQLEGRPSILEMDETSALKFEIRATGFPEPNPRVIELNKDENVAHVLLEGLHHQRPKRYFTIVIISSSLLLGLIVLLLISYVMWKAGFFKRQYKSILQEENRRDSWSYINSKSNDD
Sequence of VLA-4 (a4b1) (P05556 21-798): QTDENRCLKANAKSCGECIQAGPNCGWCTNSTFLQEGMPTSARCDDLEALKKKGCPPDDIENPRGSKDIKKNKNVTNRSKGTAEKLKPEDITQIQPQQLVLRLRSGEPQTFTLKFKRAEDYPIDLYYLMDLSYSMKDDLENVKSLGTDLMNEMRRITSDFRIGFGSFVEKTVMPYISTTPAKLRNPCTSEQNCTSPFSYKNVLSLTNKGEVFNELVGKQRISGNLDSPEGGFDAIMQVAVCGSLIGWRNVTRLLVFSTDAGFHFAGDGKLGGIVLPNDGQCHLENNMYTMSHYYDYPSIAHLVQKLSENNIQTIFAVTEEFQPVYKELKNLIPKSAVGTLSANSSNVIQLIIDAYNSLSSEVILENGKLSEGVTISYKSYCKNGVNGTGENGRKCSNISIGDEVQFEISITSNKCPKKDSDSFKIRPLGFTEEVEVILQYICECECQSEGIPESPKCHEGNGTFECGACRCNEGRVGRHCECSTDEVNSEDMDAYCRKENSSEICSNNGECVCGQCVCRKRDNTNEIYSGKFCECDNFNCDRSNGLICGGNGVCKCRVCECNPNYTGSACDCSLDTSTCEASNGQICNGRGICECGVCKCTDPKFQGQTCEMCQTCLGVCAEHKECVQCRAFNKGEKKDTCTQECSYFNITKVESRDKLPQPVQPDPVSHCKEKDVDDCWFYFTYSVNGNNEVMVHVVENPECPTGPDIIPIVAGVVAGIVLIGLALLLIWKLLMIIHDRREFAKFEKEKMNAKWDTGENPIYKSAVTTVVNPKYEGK
Experimental: VLA-4 (a4b1) inhibitor compounds were tested for their ability to inhibit the binding of soluble VCAM-1 to human G2 acute lymphoblastic leukemia (ALL) cells. Briefly, G2 ALL cells are pre-incubated with increasing concentrations (0.1 to 1000 nM) of compounds for 30 minutes. Soluble VCAM/Fc chimera protein (R & D systems) is then added to the mixture and the cells incubated for an additional 30 minutes. Afterwards, cells are washed and VCAM-1 is detected using a PE-conjugated secondary polyclonal antibody. In each experiment, an aliquot of cells are stained with isotype control antibodies to serve as a negative control. The percentage of VCAM-1 binding cells was then determined by flow cytometry.

[1] = system: hematopoietic stem/progenitor cells (HSPCs); assay: HSPC mobilization into peripheral blood, colony forming unit (CFU) assay; conditions: mice
[2] = as listed in TABLE 6, read-out: sVCAM IC50
[3] = inhibition of sVCAM-1 binding to human G2 ALL cells (TABLE 3), read-out: SVCAM-1, IC50
[4] = single s.c. injection, peripheral blood, 0.25 hr post dose (TABLE 6)
[5] = single s.c. injection, peripheral blood, 2 hr post dose (TABLE 6)
[6] = single s.c. injection, peripheral blood, 4 hr post dose (TABLE 6)

Structure (SMILES)	IC50 (VLA-4 (a4b1); [2]) [nM]	IC50 (VLA-4 (a4b1); [3]) [nM]	No. CFU (×10^3)/mL ± SD, 0.25 hr [1, 4]	No. CFU (×10^3)/mL ± SD, 2 hr [1, 5]	No. CFU (×10^3)/mL ± SD, 4 hr [1, 6]	HSPC mobilization, result in words ([1]; single dose)	also measured
COc1cccc(OC)c1-c1ccc(C[C@H](NC(=O)[C@]2(C)CCCN2S(=O)(=O)c2cc(Cl)cc(Cl)c2)C(=O)O)cc1 [Example C5]	3.59	3.59	2.78 ± 0.48 (×10^3)/mL	1.38 ± 0.53 (×10^3)/mL	0.31 ± 0.09 (×10^3)/mL		
CCOCc1cc(OC)c(-c2ccc(C[C@H](NC(=O)[C@@H]3CCCN3S(=O)(=O)c3cc(Cl)cc(Cl)c3)C(=O)O)cc2)c(OC)c1 [Example C6]	0.445	0.445	2.58 ± 0.65 (×10^3)/mL	2.12 ± 0.70 (×10^3)/mL	0.46 ± 0.20 (×10^3)/mL		
COCCOCCOCCOCc1cc(OC)c(-c2ccc(C[C@H](NC(=O)[C@@H]3CCCN3S(=O)(=O)c3cc(Cl)cc(Cl)c3)C(=O)O)cc2)c(OC)c1 [Example C7]	0.194	0.194	2.57 ± 0.62 (×10^3)/mL	2.52 ± 0.37 (×10^3)/mL	0.50 ± 0.18 (×10^3)/mL	returning to baseline by 4 hours and clearly at baseline by 6 hours	IC50 (VLA-4 (a4b1); as listed in TABLE 9, read-out: sVCAM IC50): 0.194 nM; No. CFU (×10^3)/mL ± SD, 2 hr ([1]; single dose, peripheral blood, 2 hr post dose (TABLE 9)): 2.65 ± 1.39 (×10^3)/mL; No. CFU (×10^3)/mL ± SD, 4 hr ([1]; single dose, peripheral blood, 4 hr post dose (TABLE 9)): 0.44 ± 0.17 (×10^3)/mL; No. CFU (×10^3)/mL ± SD, 6 hr ([1]; single dose, peripheral blood, 6 hr post dose (TABLE 9)): 0.11 ± 0.08 (×10^3)/mL
COc1cc(CO)cc(OC)c1-c1ccc(C[C@H](NC(=O)[C@@H]2CCCN2S(=O)(=O)c2cc(Cl)cc(Cl)c2)C(=O)O)cc1 [Example C8]	0.199	0.199	2.74 ± 0.69 (×10^3)/mL	2.10 ± 0.85 (×10^3)/mL	0.42 ± 0.15 (×10^3)/mL	have returned to baseline	IC50 (VLA-4 (a4b1); as listed in TABLE 7, read-out: sVCAM IC50): 0.199 nM; No. CFU (×10^3)/mL ± SD, 0.5 hr ([1]; single dose, peripheral blood, 0.5 hr post dose (TABLE 7)): 0.85 ± 0.30 (×10^3)/mL; No. CFU (×10^3)/mL ± SD, 2 hr ([1]; single dose, peripheral blood, 2 hr post dose (TABLE 7)): 0.87 ± 0.30 (×10^3)/mL; No. CFU (×10^3)/mL ± SD, 4 hr ([1]; single dose, peripheral blood, 4 hr post dose (TABLE 7)): 0.27 ± 0.36 (×10^3)/mL
COCCOCCOCCOCCOCCOCCOCCOCCOCCOCCOCCOCCOCCOCCOCCOCCOCCOCCOCCOCCOCCOCCOCCOCCn1cc(COCc2cc(OC)c(-c3ccc(C[C@H](NC(=O)[C@@H]4CCCN4S(=O)(=O)c4cc(Cl)cc(Cl)c4)C(=O)O)cc3)c(OC)c2)nn1 [Example C9, (S)-3-(4′-(((1-(2,5,8,11,14,17,20,23,26,29,32,35,38,41,44,47,50,53,56,59,62,65,68,71-tetracosaoxatriheptacontan-73-yl)-1H-1,2,3-triazol-4-yl)methoxy)methyl)-2′,6′-dimethoxy-[1,1′-biphenyl]-4-yl)-2-((S)-1-((3,5-dichlorophenyl)sulfonyl)pyrrolidine-2-carboxamido)propanoic Acid]		0.579				returning to baseline by 4 hours; also recorded: inferior mobilization at 4 hours compared to Example 3	IC50 (VLA-4 (a4b1); as listed in TABLE 8, read-out: sVCAM IC50): 0.579 nM; No. CFU (×10^3)/mL ± SD, 0.25 hr ([1]; single dose, peripheral blood, 0.25 hr post dose (TABLE 8)): 3.72 ± 1.18 (×10^3)/mL; No. CFU (×10^3)/mL ± SD, 2 hr ([1]; single dose, peripheral blood, 2 hr post dose (TABLE 8)): 3.09 ± 1.06 (×10^3)/mL; No. CFU (×10^3)/mL ± SD, 4 hr ([1]; single dose, peripheral blood, 4 hr post dose (TABLE 8)): 0.57 ± 0.28 (×10^3)/mL
CCOCc1cc(OC)c(-c2ccc(C[C@H](NC(=O)c3c(F)cccc3F)C(=O)O)cc2)c(OC)c1 [Firategrast, firategrast]							No. CFU (×10^3)/mL ± SD, 1 hr ([1]; single dose, peripheral blood, 1 hr post dose (TABLE 20)): 0.34 ± 0.12 (×10^3)/mL; No. CFU (×10^3)/mL ± SD, 4 hr ([1]; single dose, peripheral blood, 4 hr post dose (TABLE 20)): 0.24 ± 0.14 (×10^3)/mL; No. CFU (×10^3)/mL ± SD, 8 hr ([1]; single dose, peripheral blood, 8 hr post dose (TABLE 20)): 0.24 ± 0.14 (×10^3)/mL
c1cc(CN2CCCNCCNCCCNCC2)ccc1CN1CCCNCCNCCCNCC1 [Plerixafor, plerixafor]							No. CFU (x10^3)/mL ± SD, 4 hr ([1]; single dose alone or in combination with Plerixafor (5 mg/kg s.c.), peripheral blood, 4 hr (TABLE 15)): 1.25 ± 0.30 (x10^3)/mL; No. CFU (x10^3)/mL ± SD, 6 hr ([1]; single dose alone or in combination with Plerixafor (5 mg/kg s.c.), peripheral blood, 6 hr (TABLE 15)): 0.28 ± 0.12 (x10^3)/mL; No. CFU (x10^3)/mL ± SD, 24 hr ([1]; single dose alone or in combination with Plerixafor (5 mg/kg s.c.), peripheral blood, 24 hr (TABLE 15)): 0.22 ± 0.08 (x10^3)/mL
